From PMC10689823, “Discovery of a Drug-like, Natural Product-Inspired DCAF11 Ligand Chemotype” (Nature Communications, 2023)
Where “and” joins values, the source holds several entries; their conditions need not be identical. Equal entries are not always repeated.

Key:
BRD2 [1] = target: BRD2 (Homo sapiens, UniProt P25440); assay: BRD2 levels by Western blot in Jurkat cells; format: cell-based; set-up: endogenous in cells; host or cells: Jurkat; Hep G2; MDA-MB-231; KBM7 (WT, DCAF11 KO, DDB1 KO)
Method: Cells were washed with PBS and lysed in lysis buffer (50 mM Tris-HCl, pH 7.4, 150 mM NaCl, 1% Triton X-100, 1% sodium deoxycholate, 0.1% SDS) with complete protease inhibitor cocktail (Roche, 11836170001) for 30 min on ice. For Ramos cells, cell pellets were lysed in lysis buffer (50 mM Tris-HCl, pH 8, 150 mM NaCl, 1% NP-40, 0.5% sodium deoxycholate) with complete protease inhibitor cocktail. After centrifugation at 16,000 x g, the supernatant was transferred into a new tube and the protein concentration was determined by DC protein assay (BIO-RAD, 5000116). Proteins were separated by SDS-PAGE and transferred to a PVDF membrane (Thermo scientific, 0.45 μm, 88518). For PDEδ, BRD2, GAPDH, BRD4, Vinculin and BTK, the membranes were blocked with Intercept® Blocking Buffer (LI-COR Biosciences, 927-70001) at room temperature for 1 h. The primary antibodies for these proteins were diluted with Intercept® Blocking Buffer (1:500 for PDEδ, 1:3000 for Vinculin, and 1:1000 for other proteins) and incubated with the membranes overnight at 4 °C. Membranes were washed with PBS + 0.1% Tween 20 (PBS-T) five times and incubated with secondary antibodies conjugated to IRDye® Infrared Fluorescent Dyes (1:5000, LI-COR Biosciences) at room temperature for 1 h with protection from light. After washing the membrane, signals were visualized using the ChemiDoc MP Imaging System (BIO-RAD Laboratories). For detection of LC3B, BRD3, BLK, DCAF11, DDB1 RBX1, FIP200, V5- and FLAG-Tag the membranes were blocked with 5% milk in PBS-T at room temperature for 1 h. The primary antibodies for these proteins were diluted in 5% milk in PBS-T buffer (1:200 for BRD3, 1:1000 for other proteins) and incubated with the membranes overnight at 4 °C. Membranes were washed with PBS-T five times and incubated with HRP secondary antibodies (1:1500) at room temperature for 1 h. After washing the membrane, protein detection was performed using Western blotting detection reagent (Thermo Scientific, 34095) and the ChemiDoc MP Imaging System (BIO-RAD). Relative band intensities were quantified using Image Lab (BIO-RAD).

BRD2 [2] = assay: In-Cell Western for BRD2 levels in Hep G2 cells; format: cell-based; conditions: then 9 (10 μM, 4 h)
Method: Hep G2 cells were seeded in 96-well plates and incubated for 24 h. Compounds were added for the indicated time at the indicated concentration. Cells were then washed once with PBS and fixed with 4% paraformaldehyde for 30 min at room temperature. The fixed cells were permeabilized with 0.5 % Triton-X100 for 15 min followed by block with Intercept® Blocking Buffer (LI-COR Biosciences, 927-70001) for 1 h at room temperature. Primary antibodies for BRD2 (1:800) and Vinculin (1:2000) were diluted with LI-COR buffer and incubated with the cells at 4 °C overnight. Cells were washed with PBS-T, and the secondary antibodies conjugated to IRDye (1:1000, LI-COR Biosciences) were added to the cells for 1 h at room temperature. After washing the cells, the signal was recorded with the Odyssey® CLx Infrared Imaging System (LI-COR Biosciences) and the protein levels were analyzed by Image Studio (LI-COR Biosciences). BRD2 protein levels were normalized to the levels of reference protein vinculin.

BRD2 (Homo sapiens, UniProt P25440), sequence (P25440 whole entry): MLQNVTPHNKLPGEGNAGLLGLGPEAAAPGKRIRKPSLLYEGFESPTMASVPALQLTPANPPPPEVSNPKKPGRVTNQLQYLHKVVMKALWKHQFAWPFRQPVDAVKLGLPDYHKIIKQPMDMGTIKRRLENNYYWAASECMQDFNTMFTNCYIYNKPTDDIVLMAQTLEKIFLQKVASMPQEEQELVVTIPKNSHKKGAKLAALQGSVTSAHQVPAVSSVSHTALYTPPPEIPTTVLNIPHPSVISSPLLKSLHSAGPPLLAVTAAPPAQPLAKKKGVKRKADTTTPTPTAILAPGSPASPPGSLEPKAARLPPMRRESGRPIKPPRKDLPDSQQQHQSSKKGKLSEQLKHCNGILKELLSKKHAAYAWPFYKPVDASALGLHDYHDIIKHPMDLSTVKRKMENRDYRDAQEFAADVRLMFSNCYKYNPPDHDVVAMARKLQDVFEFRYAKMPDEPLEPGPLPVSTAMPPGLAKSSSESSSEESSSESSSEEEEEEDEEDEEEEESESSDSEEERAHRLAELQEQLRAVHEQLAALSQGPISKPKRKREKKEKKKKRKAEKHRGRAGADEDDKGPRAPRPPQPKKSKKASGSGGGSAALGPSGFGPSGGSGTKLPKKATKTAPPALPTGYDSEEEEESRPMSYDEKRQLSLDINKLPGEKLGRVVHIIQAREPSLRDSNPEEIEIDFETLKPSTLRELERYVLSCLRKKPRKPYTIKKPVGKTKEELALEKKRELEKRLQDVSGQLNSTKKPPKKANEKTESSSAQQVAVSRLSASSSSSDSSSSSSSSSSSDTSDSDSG

Cc1sc2c(c1C)C(c1ccc(Cl)cc1)=NC(CC(=O)NCCOCCOCCOCCOc1c(Br)cc(C=C3C(=O)N(c4ccccc4)c4ccccc43)cc1Br)c1nnc(C)n1-2 (stereo not shown) [Compound 49]
remaining activity at 3 µM (BRD2 [1]; Jurkat, 6 h, 3 μM, 6 h, Fig. 4j, read-out: BRD2/Vinculin intensity (relative to DMSO control group)): 12.6%

NS(=O)(=O)OC[C@@H]1C[C@@H](n2ccc3c(N[C@H]4CCc5ccccc54)ncnc32)C[C@@H]1O [MLN4924, reference compound]
BRD2/Vinculin intensity (relative to control group) (BRD2 [2]; Hep G2 cells, pretreated with MLN4924 at 1 μM 1 h, single repeats, Fig. 4h): 108.675 and 116.153 and 114.111
Value (Mean ± SD): Relative BRD2 levels remaining in Hep G2 cells after treatment with compounds followed by treatment with 9, with DMSO control for normalization (BRD2 [2]; qualitative ICW assay, MLN4924 at 1 μM 1 h, Supplementary Table 1): 112.98 ± 3.16

Cc1ncsc1-c1ccc(CNC(=O)[C@@H]2C[C@@H](O)CN2C(=O)[C@@H](NC(=O)COCCOCCOCCNC(=O)C[C@@H]2N=C(c3ccc(Cl)cc3)c3c(sc(C)c3C)-n3c(C)nnc32)C(C)(C)C)cc1 [MZ1, reference compound]
BRD2 levels after washout (BRD2 [1]; 10 μM, 5 h prior to washout): can be washed out
